According to patent US8663621B2, “Identification and synthesis of a male-produced pheromone for the neotropical root weevil Diaperpes abbreviatus (coleoptera: curculionidae)” (The United States of America, as Represented by the …, priority 2012, dated 2014):
“Also recorded” adds a separate entry of the source.

Tests used:
[1] = test system: Diaprepes abbreviatus antenna (male and female); experiment: gas chromatograph-coupled electroantennogram detection (GC-EAD) of antennal response; details: for antennal response (GC-EAD) to peaks of headspace extract: hexane extract of headspace volatiles from adult males and citrus leaves (FIG. 2); for antennal response (GC-EAD): male and female antennae, 50 ng linalool and 100 ng synthetic compound in hexane (FIG. 4)
Excerpt: In a first assay employed to find an attractive chemical of insect origin, a gas chromatograph-coupled electroantennogram detection (GC-EAD) system was used to analyze male aeration samples. This system included an Agilent 7890A GC equipped with a split/splitless injector, an HP-1 capillary column (approximately 30 m×0.32 mm×0.25 μm, Agilent Technologies, Inc., Santa Clara, Calif., USA), a post column glass Y-tube (Supelco, Bellefonte, Pa., USA) splitter for dividing column effluent in an approximately 1:1 ratio between a flame ionization detector (FID) and a heated (200° C.) EAD transfer line. Two lengths of deactivated column (approximately 0.32 mm ID) were used to carry effluent to the FID and EAD port after the split. At the start of GC-EAD runs, the GC oven temperature was held at about 35° C. for 3 minutes and then increased to about 260° C. at a rate of about 15° C./min and held at about 260° C. for about 10 min. Injector and FID temperatures were set at about 220° C. and about 300° C., respectively. Splitless injection was used with helium as the carrier gas at a flow rate of about 2.3 ml/min. A heated transfer line emptied into a charcoal-filtered, humidified air stream (about 200 ml/min at about 30 cm/sec) that carried the effluent over an antennal preparation. The antennal preparation can be made by plucking the antenna from either a male or female insect (grasping it firmly at the base of the antenna near the head with fine forceps) and placing the antenna between two metal electrodes of a Universal EAG probe, to which small amounts of salt-free electrode gel (Spectra 360, Parker Laboratories, Fairfield, N.J., USA) had been applied. The probe was connected to a type PRG-2 amplifier (Universal EAG probe, Syntech, Hilversum, The Netherlands). The humidified air stream was directed to pass over the antennal preparation generating a signal. […] […] […] […] Antennae from male and female D. abbreviatus were used as detectors to confirm antennal response to the synthetic compound.

[2] = test system: Diaprepes abbreviatus antenna (male and female); details: used as co-injected control for antenna viability; cited from earlier work
[3] = stability of the pheromone (lactonization; acid, heat, storage); format: physicochemical; details: for stability in acidic medium (lactonization to 2): acid-catalyzed THP removal, CDCl3 with residual acidity
Procedure: At the core of the chosen synthetic route lies a stereoselective carbocupration of α,β-acetylenic esters that was exclusively cis-stereospecific when the reaction was conducted in THF at low temperatures (Corey and Katzenellenbogen 1969, Bourque et al. 1999, Drew et al. 1999). However, a conjugate addition of a heterocuprate, formed in situ from isopropylmagnesium bromide and copper(I) iodide in the presence of N,N,N,N'-tetramethylethylenediamine ([…] et al. 1984), to the acetylenic ester (FIG. 1) proceeded with some loss of stereoselectivity resulting in a mixture of E and Z olefinic esters in an approximately 92:8 ratio. During acid-catalyzed removal of the tetrahydropyranyl (THP) protecting group, the ratio of 1E and 1Z dropped to approximately 86:14 and a considerable amount of lactone 2 was formed, thus indicating instability of the putative pheromone in acidic medium.

[4] = test system: Diaprepes abbreviatus adults; experiment: two-choice olfactometer behavioral bioassay; format: in vivo; details: for Number choosing A (air) / Number choosing B (odor source): A: air vs B: odor source; for No choice (number): moved to but remained in central arena; for No response (number): remained in inlet
Procedure: Behavioral response to the pheromone was tested in an olfactometer (Model 4C, ARS, Inc., Micanopy, Fla. USA) wherein individual weevils (starved for about 24 h) were placed in a glass inlet and allowed to walk upwards into the center of an arena with a balanced, filtered and humidified airflow from two arms oriented at 180° to each other and outfitted with glass reservoirs containing an odor source or blank. The assays were conducted in the dark between about 9 AM and 2 PM; each run was terminated when the weevil moved into one of the glass receptacles or when about 15 min had elapsed. Assays were run in the dark because of a strong phototropic response in this insect (Lapointe and Hall 2009). Weevil position was scored as no-response (remaining in the inlet), no-choice (moving to but remaining in the central arena) or choosing one of the two arms. Responses of unmated approximately 4 to 6-week-old males and females were recorded to various odor sources: fresh young citrus leaves (flush), flush fed upon for about 24 hr by male D. abbreviatus, approximately 30 μg of methyl (E)-3-(2-hydroxyethyl)-4-methyl-2-pentenoate in approximately 10:1 hexanes:ethyl acetate pipetted onto a glass slide, and a clean glass slide. All glass components of the olfactometer were thoroughly washed between runs with warm soap and water, rinsed with methanol and air-dried. Between replications of a given treatment, the arms of the olfactometer used for that treatment were switched to control for bias in the apparatus. The number of weevils choosing a treatment arm was compared with the control arm (clean air) by the G-test (Sokal and Rohlf 1994).

## CC(C)=CCC/C(C)=C/CO (single isomer, unassigned) [geraniol, reference compound]
[1]
  antennal response (GC-EAD) to peaks of headspace extract: positive antennal responses

## C=CC(C)(O)CCC=C(C)C (single isomer, unassigned) [linalool, reference compound]
[2]
  antennal response, previously determined: consistent antennal response
[1]
  antennal response (GC-EAD) to peaks of headspace extract: positive antennal responses
  antennal response (GC-EAD): Both male and female antennae responded

## CC(C)=CCC/C(C)=C/C=O [geranial, reference compound]
[1]
  antennal response (GC-EAD) to peaks of headspace extract: positive antennal responses

## CC(C)C1=CC(=O)OCC1 [lactone]
[1]
  antennal response (GC-EAD): No antennal response; also recorded: Neither responded

## COC(=O)/C=C(\CCO)C(C)C [methyl (E)-3-(2-hydroxyethyl)-4-methyl-2-pentenoate]
[3]; listed as 1E
  stability in acidic medium (lactonization to 2): noticeable cyclization of 1E to 2
[3]; listed as putative pheromone
  stability in acidic medium (lactonization to 2): instability
[3]; preparative GC with conventional injection port
  thermal stability: thermal instability
[3]; purified sample, up to 25° C. in aprotic solvents (benzene, hexane, ethyl acetate)
  storage stability: stores indefinitely
[4]; female weevils
  Number choosing A (air): 17
  Number choosing B (odor source): 48
  No choice (number): 17
  No response (number): 71
[4]; female weevils, α=0.05, G-test
  preference for odor source versus clean air (in words): consistently moved upwind more often
[4]; female weevils, α=0.05, G-test, listed as synthetic pheromone
  preference for odor source versus clean air (in words): more often as compared to clean air
[4]; male weevils
  Number choosing A (air): 30
  Number choosing B (odor source): 34
  No choice (number): 20
  No response (number): 69
[4]; male weevils, listed as pheromone
  preference for odor source versus clean air (in words): did not show a clear preference
[4]; male weevils, listed as synthetic pheromone
  preference for odor source versus clean air (in words): no clear preference
[1]
  antennal response (GC-EAD) to peaks of headspace extract: elicit a response from male and female antennae
  antennal response (GC-EAD): Both male and female antennae responded

## COC(=O)/C=C(/CCO)C(C)C [methyl (Z)-3-(2-hydroxyethyl)-4-methyl-2-pentenoate]
[1]
  antennal response (GC-EAD): inactive
[1]; listed as Z isomer
  antennal response (GC-EAD): No antennal response; also recorded: Neither responded
